Results taken from publication PMC9502993 (Pharmaceuticals, 2022).
Values joined by “and” are separate entries in the source; they are usually repeats but may differ in a detail not shown here. Identical values can stand only once. Like-named read-outs stand apart in the source and are kept apart here.

Key:
[1] = molecular target: T1, P-glycoprotein (Homo sapiens, UniProt P08183); conditions: cited from earlier work
T1 construct: endogenous in cells; host or cells: Caco-2 (high P-gp), Calu-3 (low P-gp)
T1 sequence (P08183 whole entry): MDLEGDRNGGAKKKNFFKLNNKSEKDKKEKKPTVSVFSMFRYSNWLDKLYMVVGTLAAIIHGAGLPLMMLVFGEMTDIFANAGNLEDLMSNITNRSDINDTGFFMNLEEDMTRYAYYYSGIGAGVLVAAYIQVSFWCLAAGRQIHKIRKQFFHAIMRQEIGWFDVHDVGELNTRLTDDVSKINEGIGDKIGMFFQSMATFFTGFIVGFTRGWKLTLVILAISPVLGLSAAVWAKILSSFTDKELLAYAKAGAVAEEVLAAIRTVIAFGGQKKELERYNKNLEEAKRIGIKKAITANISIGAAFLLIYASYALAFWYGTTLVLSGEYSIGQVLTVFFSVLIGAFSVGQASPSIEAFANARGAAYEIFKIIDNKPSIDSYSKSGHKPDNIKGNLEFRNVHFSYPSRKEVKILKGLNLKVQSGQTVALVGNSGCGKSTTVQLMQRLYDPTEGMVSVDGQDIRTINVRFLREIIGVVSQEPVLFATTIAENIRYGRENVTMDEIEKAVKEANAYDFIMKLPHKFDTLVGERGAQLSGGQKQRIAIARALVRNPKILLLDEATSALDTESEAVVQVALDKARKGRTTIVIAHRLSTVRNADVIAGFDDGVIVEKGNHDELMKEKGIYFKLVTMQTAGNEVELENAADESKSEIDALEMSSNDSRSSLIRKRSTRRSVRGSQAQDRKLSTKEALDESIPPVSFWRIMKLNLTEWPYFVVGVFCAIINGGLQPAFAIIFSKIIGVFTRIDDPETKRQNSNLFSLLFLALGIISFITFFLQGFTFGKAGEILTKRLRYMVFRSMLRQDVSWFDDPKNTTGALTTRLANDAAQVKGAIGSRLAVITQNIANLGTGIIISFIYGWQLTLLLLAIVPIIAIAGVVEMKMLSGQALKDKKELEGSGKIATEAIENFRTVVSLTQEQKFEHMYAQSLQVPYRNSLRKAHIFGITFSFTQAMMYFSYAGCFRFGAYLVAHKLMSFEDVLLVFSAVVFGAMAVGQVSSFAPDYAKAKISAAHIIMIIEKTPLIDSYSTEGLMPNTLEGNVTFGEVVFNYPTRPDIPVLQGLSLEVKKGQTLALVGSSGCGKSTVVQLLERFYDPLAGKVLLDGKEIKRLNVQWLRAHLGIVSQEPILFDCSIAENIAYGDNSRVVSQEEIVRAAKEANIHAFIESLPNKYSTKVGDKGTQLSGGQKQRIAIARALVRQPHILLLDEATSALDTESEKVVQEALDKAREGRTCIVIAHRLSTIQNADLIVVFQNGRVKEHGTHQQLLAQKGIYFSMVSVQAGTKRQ

[2] = Stability assay in human liver microsomes; format: in vitro ADME; conditions: pH 7.4, human liver microsomes 0.5 mg/mL
Method: The reaction was started with 1 mM NADPH diluted in potassium phosphate buffer. As control, samples without NAPDH were used. After various time points (0 h, 1 h, 2 h, 4 h), the reaction was stopped by adding ice-cold acetonitrile. The samples were centrifuged (5 min, 4 °C, 10,000× g) and supernatant was stored at −80 °C until the remaining drug concentration was determined by LC-MS/MS as described in detail below. The concentrations of the drugs were plotted against time and the elimination constant (k) was calculated from the slope (m):m = −k
Equation to determine half-life:T1/2 = 0.693/K
Equation to determine intrinsic clearance:Cl = Ln(2) × 1000/T1/2/protein concentration

[3] = test system: Calu-3 cells; conditions: human, 25 µM
[4] = test system: Caco-2 cells; conditions: human, 25 µM
[5] = test system: HEK293T cells; assay: Ca2+-release assay (Fluo-8-AM), GPCR off-target; format: cell-based
Method: Next, 50,000 HEK293T cells were seeded in a 96-well poly-D-lysine-coated plate and incubated at 37 °C for 24 h. Cells were incubated with 4 µM Fluo-8-AM in HBSS for 1 h at 37 °C. After 1 h, the Fluo-8/HBSS was replaced by 100 µL HBSS. Five images per second were taken using an ImageXpress Micro Confocal High Content Imaging System (Molecular Device, San Jose, CA, USA). […] An image was taken every second for the next 20 s. The MetaXpress Software Version 6.7.1.157 (San Jose, CA, USA) was used to analyze the data. A threshold of fluorescence intensity was defined using cells before treatment and all cells with a fluorescence signal above the threshold level were counted and related to all cells.

[6] = test system: HEK293T cells; assay: IP3 assay, GPCR off-target; format: cell-based
[7] = test system: primary immune cells; conditions: primary immune cells ref 9; cited from earlier work
[8] = test system: Calu-3 cell barrier; conditions: human, 24 h, 200 µM
[9] = test system: Caco-2 cell barrier; conditions: human, 200 µM
[10] = test system: HepG2 cells; assay: In Vitro Micronuclei Plus assay (flow cytometry)
[11] = test system: MDA-MB-231 cell line; set-up: method as in PMID 32470302; conditions: MDA-MB-231, 100 nM ref 39; cited from earlier work
[12] = test system: HeLa; conditions: HeLa ref 6; cited from earlier work
[13] = test system: Caco-2 cells; assay: Cell viability assay (Orangu WST-8, formazan-based); conditions: for effect on cell viability: 48 h
[14] = test system: Calu-3 cells; assay: Cellular uptake assay (LC-MS/MS)
[15] = test system: Caco-2 cells; assay: Cellular uptake assay (LC-MS/MS)
[16] = test system: primary monocytes; set-up: method as in PMID 35336926; conditions: primary monocytes ref 9; cited from earlier work
[17] = test system: primary dendritic cells; set-up: method as in PMID 35336926; conditions: primary dendritic cells ref 9; cited from earlier work
[18] = test system: Chikungunya virus; set-up: method as in PMID 31931103; conditions: Chikungunya virus ref 5; read-out: EC50 (50% reduction of the virus titer); cited from earlier work
[19] = test system: HEK293T cells; assay: Cell viability assay (Orangu WST-8, formazan-based); conditions: 48 h
[20] = as above; conditions: human, HEK293T cells
[21] = test system: MERS-CoV; conditions: MERS-CoV ref 6; read-out: EC50 (50% reduction of the virus titer); cited from earlier work
[22] = test system: lung fibroblast cell line MRC-5; set-up: method as in PMID 31931103; conditions: MRC-5 ref 5; cited from earlier work
[23] = Cell viability assay (Orangu WST-8, formazan-based); conditions: human, Caki-2 cells
[24] = test system: Caki-2 cells; assay: as above; conditions: 48 h
[25] = test system: Caco-2 cell barrier; assay: Cell barrier integrity (TEER, cellZscope2); format: cell-based
[26] = mice, formulated in hydroxypropyl-β-cyclodextrin, intraperitoneal ref 30; cited from earlier work
[27] = test system: non-transformed primary cells; conditions: several non-transformed primary cells ref 6, 20, 30; cited from earlier work
[28] = test system: lung cancer cell line A549; set-up: method as in PMID 31931103; conditions: A549 ref 5; cited from earlier work
[29] = test system: primary M2 macrophages; set-up: method as in PMID 35336926; conditions: primary M2 macrophages ref 9; read-out: CC50 (no cytotoxic effects up to); cited from earlier work
[30] = test system: primary M1 macrophages; set-up: method as in PMID 35336926; conditions: primary M1 macrophages ref 9; cited from earlier work
[31] = test system: Caco-2 cell barrier; assay: Transport assay across cell barrier
[32] = test system: colon cancer cell line HT29; conditions: HT29 ref 17; cited from earlier work
[33] = test system: Calu-3 cells; assay: Cell viability assay (Orangu WST-8, formazan-based)
[34] = test system: HEK293T cells; assay: cAMP assay (GloSensor luciferase), GPCR off-target
[35] = test system: T cells; set-up: method as in PMID 35336926, PMID 1360266; conditions: T cells ref 9, 34; cited from earlier work
[36] = test system: Calu-3 cell barrier; assay: Transport assay across cell barrier
[37] = test system: various viruses, such as corona- and Ebolaviruses; conditions: cited from earlier work
[38] = test system: HCoV-229E; conditions: HCoV-229E ref 6; read-out: EC50 (50% reduction of the virus titer); cited from earlier work
[39] = test system: HepG2 cells; assay: Cell viability assay (Orangu WST-8, formazan-based)
Method: For the cell viability assay, HepG2 cells were incubated with various
normalized to the absorbance of the respective DMSO value to calculate cell viability. The experiments were performed in biological
(1 picture or pasted object on this page, not shown here)

[40] = test system: hepatocellular carcinoma cell line Huh-7; conditions: Huh-7 ref 6; cited from earlier work
[41] = 10 µM ionomycin, positive control

In the case of `Cc1ccc(-c2cc(C(F)(F)F)nn2-c2ccc(S(N)(=O)=O)cc2)cc1` [celecoxib, reference compound], the “substrate of P-glycoprotein” value [1] is listed as “not a substrate of P-glycoprotein”, the half-life at 10 µM ([2]; 10 µM) is listed as 2.3 ± 0.5 h and the microsomal CLint at 10 µM ([2]; 10 µM, read-out: intrinsic clearance) is listed as 10.5 ± 2 µL/min/mg. The uptake rate [3] was “about 2.5 ng/µg protein” and the uptake rate [4] was “about 2.5 ng/µg protein”.
With `C[C@H](CCC(=O)O)C[C@H](C)C[C@H](C)C(=O)/C=C(\O)[C@H](C)C[C@H](C)C/C=C/[C@@H](C)[C@@H](O)[C@@H](C)[C@@H](O)C[C@@H]1CC[C@@](C)([C@H]2CC[C@@](C)([C@@H](C)O)O2)O1` [ionomycin, reference compound] the “induction of Ca2+-release” value [5, 41] was “induced significant increases” and the “induction of IP3 synthesis” value [6, 41] was “induced significant increases”.
In the case of `CONC(=O)[C@H]1[C@@H](O)[C@@]2(O)c3c(OC)cc(OC)cc3O[C@@]2(c2ccc(OC)cc2)[C@@H]1c1ccccc1` [CR31B (-)], the “cytotoxicity compared with silvestrol” value [7] is listed as “comparable cytotoxic effects to those of silvestrol”.
In the case of `NC(=O)N1c2ccccc2C=Cc2ccccc21` [carbamazepine], the transport rate [8] is reported as 74% and the transport rate ([9]; 4 h) is reported as “approx. 45%”.
In the case of `NC(N)=Nc1nc(CSCCC(N)=NS(N)(=O)=O)cs1` [famotidine], the transport rate [8] is reported as 8.3%, the transport rate ([9]; 4 h) is reported as 0.7% and the transport rate ([9]; 24 h) is reported as 1.3%.
For `CC(C)Cc1ccc(C(C)C(=O)O)cc1` (centres unmarked) [ibuprofen, reference compound], the “genotoxicity by the criteria of OECD guideline 487” value ([10]; positive and negative control) was “no effects”.
For `COc1cc2c(c(OC)n1)[C@]1(O)[C@H](O)[C@H](CN(C)C)[C@@H](c3ccccc3)[C@]1(c1ccc(C#N)cc1)O2` [zotatifin, reference compound], the “effect on cell cycle and apoptosis” value [11] is listed as “induces a G2 cell cycle block and apoptosis” and the “clastogenic effects (micronuclei)” value ([10]; 10 nM only, not concentration dependent) is listed as “some clastogenic and aneugenic effects”.
In the case of `COC(=O)[C@H]1[C@@H](O)[C@@]2(O)c3c(OC)cc(O[C@@H]4O[C@@H]([C@H](O)CO)CO[C@H]4OC)cc3O[C@@]2(c2ccc(OC)cc2)[C@@H]1c1ccccc1` [silvestrol], the CC50 [12] is listed as 5 nM, the “effect on cell viability” value [13] is listed as “did not reduce viability below 50%” and the “effect on cell viability” value ([13]; listed as Silvestrol) is listed as “only minor effects”. The reduction of viability ([13]; concentrations up to 1000 nM) was “about 50%”, the “change of cytotoxicity on inhibition of P-glycoprotein” value ([13]; preincubated with 1 µM cyclosporine 60 min, then 48 h) was “increased the cytotoxic potential” and the “substrate of P-glycoprotein” value [1] was “substrate”. For the same compound, the “uptake related to used amount of silvestrol” value ([14]; at maximum) was “≈ 3.7%”, the “cellular uptake (maximum)” value ([14]; concentration- and time-dependent) was “about 7.7 pg/µg protein” and the “cellular uptake (maximum)” value ([15]; 25 nM, 2 and 4 h) was “about 2.5 pg/µg protein”. For the same compound, the “uptake related to used silvestrol” value ([15]; 25 nM, at maximum) was “≈ 1.3%”, the “change of intracellular silvestrol level on inhibition of P-glycoprotein” value ([15]; preincubated with 1 µM cyclosporine 60 min) was “leads to an increase in intracellular silvestrol levels” and the CC50 [16] was 29 nM. For the same compound, the “cytotoxicity (no cytotoxic effects up to)” value [17] was > 100 nM, the half-life at 100 nM ([2]; 100 nM) was 11.6 ± 1.2 h and the microsomal CLint at 100 nM ([2]; 100 nM, read-out: intrinsic clearance) was 1.7 ± 0.5 µL/min/mg. The EC50 [18] was ~5 nM, the “induction of Ca2+-release” value ([5]; silvestrol 10, 50, 100 nM) was “did not significantly induce” and the CC50 [19] was 15.9 nM. The CC50 at 48 h [20] was 16 nM, the EC50 [21] was ~5 nM and the “cytotoxicity (no cytotoxicity up to)” value [22] was > 50 µM. For the same compound, the CC50 at 48 h [23] was 37 nM, the CC50 [24] was 37.2 nM and the “effect on TEER readings (cell barrier integrity)” value ([25]; 50 and 100 nM, 20 h) was “reduced TEER readings only slightly”. For the same compound, the intraperitoneal systemic availability [26] was 100%, the cytotoxicity [27] was “no major cytotoxicity” and the CC50 [28] was 9.42 nM. For the same compound, the CC50 [29] was > 100 nM, the CC50 [30] was 45.6 nM and 46 nM and the transport rate ([31]; 50 nM, 24 h) was 1.3%. The transport rate ([31]; 100 nM, 4 h) was 0.5%, the transport rate ([31]; 100 nM, 24 h) was 1.9% and the CC50 [32] was 0.7 nM. The “effect on cell viability” value ([33]; 48 h) was “did not reduce viability below 50%”, the reduction of viability ([33]; concentrations up to 1000 nM) was “about 50%” and the “induction of cAMP synthesis” value ([34]; silvestrol 10, 50, 100 nM) was “did not significantly induce”. The “cytotoxicity (no cytotoxic effects up to)” value [35] was > 100 nM, the transport rate ([36]; 50 nM, 24 h) was 7.8% and the transport rate ([36]; 100 nM, 4 h) was 0.8%. The transport rate ([36]; 100 nM, 24 h) was 10.6%, the “clastogenic effects (micronuclei)” value ([10]; 50 nM) was “clastogenic effects” and the “aneugenic effects (hypodiploid cells)” value ([10]; silvestrol concentrations up to 50 nM) was “no aneugenic effects”. The “reduction of virus titers” value [37] was “up to 4 log phases”, the EC50 ([37]; read-out: EC50 for inhibition of virus replication) was 1 to 100 nM and the EC50 ([37]; various viruses, such as corona- and Ebolaviruses (abstract), read-out: EC50) was ~5 nM. The EC50 [38] was ~5 nM, the “induction of IP3 synthesis” value ([6]; silvestrol) was “did not significantly induce” and the “effect on cell viability” value ([39]; 48 h) was “only minor effects”. For the same compound, the reduction of viability ([39]; concentrations up to 1000 nM) was “about 50%” and the CC50 [40] was 30 nM.
In the case of `O=C(O)CN(CCOCCOCCN(CC(=O)O)CC(=O)O)CC(=O)O` [EGTA, reference compound], the “effect on TEER readings (cell barrier integrity)” value ([25]; 10 mM, positive control) is reported as “caused a drop in TEER readings”.
With `C=C[C@@]1(C)CC(=O)[C@]2(O)[C@@]3(C)[C@@H](O)CCC(C)(C)[C@@H]3[C@H](O)[C@H](OC(C)=O)[C@@]2(C)O1` [forskolin, reference compound] the “induction of cAMP formation” value ([34]; 5 µM forskolin, positive control) was “induced significant increases”.
